In ChEMBL document CHEMBL3108752, “Iridal-type triterpenoids with neuroprotective activities from Iris tectorum” (2014) one finds viability data, which are given here for 3 molecules.

This test concerns PC-12. The test is described as follows: Neuroprotective activity against serum-deprivation-induced damage in rat PC12 cells assessed as survival rate at 10 uM after 48 hrs by MTT assay relative to control. The test is classed as functional. Particulars: PC-12, 48 h, read-out: Survival. (Formazan colour is commonly taken as a measure of viable cells.)

For the molecule `CC(C)=CCC/C(C)=C/[C@H]1C=C(CO)[C@@H]2CC[C@]3([C@H](CCCO)/C(=C(/C)C=O)CC[C@]3(C)O)[C@@H]2O1`, the viability at 10 µM turned out to be 63.8%.
Regarding `CC(C)=CCC/C(=C\[C@H]1C=C(CO)[C@@H]2CC[C@]3([C@H](CCCO)/C(=C(\C)C=O)CC[C@]3(C)O)[C@@H]2O1)CO`, the viability at 10 µM was found to be 50.9%.
Next, `CC(C)=CCC/C(=C\[C@H]1C=C(CO)[C@@H]2CC[C@]3([C@H](CCCO)/C(=C(/C)C=O)CC[C@]3(C)O)[C@@H]2O1)CO`: 54.1%.
